According to paper PMC5404848 (Cell Chemical Biology, 2017):

What was measured:
Type in all cases: cell-based, Human
HCT116 p53^wt cells [1] = test: Caspase 3/7 activity (Caspase-Glo 3/7)
Method: To evaluate whether the observed effects are accompanied by the induction of apoptosis, we examined the activation of caspases 3 and 7 in HCT116 p53^wt cells.
The cells were plated on the 96-well white, flat bottom plates (Falcon) and treated with DMSO, LCAHA or Staurosporine. For the detection of caspase activity Caspase-Glo 3/7 Assay System was used (Promega) according to the manufacturer’s instructions.

HCT116 p53^wt cells [2] = test system: HCT116 p53^wt cells
Text: […]. To investigate this effect, we analyzed the cell-cycle distribution. Cells treated for 48 hr with LCAHA or DMSO were pulse-labeled with BrdU for 1 hr and stained with fluorescein isothiocyanate (FITC)-anti-bromodeoxyuridine (BrdU) antibody and propidium iodide (PI). […].
[…]. To track the progression through the S phase and G0/G1 arrest precisely, we analyzed FITC-positive and -negative cells separately for cell-cycle distribution using ModFit LT software.
[…]. After that, the cells were either harvested by trypsinization and fixed with 96% ethanol, or cultured for additional 3-9 hours in the absence of BrdU before harvesting and fixation. The cells were stained with PI and FITC-conjugated anti-BrdU antibody (BioLegend, cat. 364104) and analysed with Fortessa flow cytometer (Becton Dickinson). Cell cycle distribution was analysed using ModFit LT Software (Verity Software House).
Figure S2. PI-BrdU pulse-chase labeling of HCT116 cells for the evaluation of cell cycle progression following LCAHA treatment. […].
HCT116 p53wt cells were seeded on culture dishes in growth medium containing 3.3% FBS and treated […]
the end of the treatment half of the medium was collected in a falcon tube, and the other half was supplemented with BrdU in a final concentration of 10 µM. After one hour, the medium containing BrdU was removed and the cells were trypsinized and fixed (time “t0”) or cultured in the medium previously collected in the falcon tube for additional 3, 6 or 9 hours. After that time the cells were trypsinized, fixed and stained with FITC conjugated anti-BrdU antibody and propidium iodide (PI). The cells were analyzed by flow cytometry using BD Fortessa cell analyzer and BD […] software. All cells, as well as FITC positive (BrdU+, top panel) and FITC negative (BrdU-, bottom panel) counts were exported to separate files and analyzed separately using ModFit LT Software. The graphs show mean ± SD values from three independent experiments. The statistical significance was evaluated using one-way ANOVA with Tukey’s […]

HCT116 p53^−/− cells [3] = test: Cell cycle analysis (PI / BrdU, flow cytometry); conditions: 5 or 10 μM, 48 hr
Method: Low concentrations of LCAHA inhibit the growth of HCT116 cells without affecting their survival. To investigate this effect, we analyzed the cell-cycle distribution. Cells treated for 48 hr with LCAHA or DMSO were pulse-labeled with BrdU for 1 hr and stained with fluorescein isothiocyanate (FITC)-anti-bromodeoxyuridine (BrdU) antibody and propidium iodide (PI).
The cells were treated with DMSO or LCAHA for 48 hours and pulse-labelled with 10 μM bromodeoxyuridine (BrdU, Sigma Aldrich) for the last hour of the treatment. After that, the cells were either harvested by trypsinization and fixed with 96% ethanol, or cultured for additional 3-9 hours in the absence of BrdU before harvesting and fixation. The cells were stained with PI and FITC-conjugated anti-BrdU antibody (BioLegend, cat. 364104) and analysed with Fortessa flow cytometer (Becton Dickinson). Cell cycle distribution was analysed using ModFit LT Software (Verity Software House).

HCT116 p53^wt cells [4] = test: Western blot analysis of protein expression
Text: (§1) The progression from G1 to S phase relies largely on the expression and activity of D cyclins. To verify whether the observed impairment in cell-cycle progression following LCAHA treatment is associated with D cyclins, we investigated the expression of cyclins D1 and D3 in HCT116 p53^wt and HCT116 p53^−/− cells.

HCT116 p53^−/− cells [5] = test: Western blot analysis of protein expression; conditions: 5 or 20 μM, 48 hr
Text: as §1

MCF-7 cells = test: Colony formation assay; conditions: 5 μM for 5 days
Method: (§2) […]. […] […]. In addition a colony-forming assay was performed on cyclin D1-addicted MCF-7 cells and cyclin D1-negative SAOS-2 cells. […].
(§3) One thousand of the cells was then seeded on 6-well plates and cultured for 2-4 weeks until the generation of well-visible clones. The plates were stained with crystal violet, imaged with the ChemiDoc MP system and analyzed using the ImageJ software ([Schneider et al., 2012]) and ‘Analyze particles’ tool. The surviving fraction (SF) was calculated using the equation: SF = (PE of treated sample / PE of control) * 100%, where PE (plating efficiency) = Ncolonies / Ncells plated.

SAOS-2 cells = test: Colony formation assay; conditions: 5 μM for 5 days
Method: as §2, §3

HCT116 p53^wt cells [6] = test: Western blot analysis of protein expression; remark: listed apart in the source
[7] = 5 μM, 48 hr, nine hours after BrdU pulse

SMILES: C[C@H](CCC(=O)NO)[C@H]1CC[C@H]2[C@@H]3CC[C@@H]4C[C@H](O)CC[C@]4(C)[C@H]3CC[C@]12C [LCAHA, N-(hydroxy)-3-hydroxylithocholanamide]
- caspase 3 and 7 activity (HCT116 p53^wt cells [1]; 10 μM): increase of caspase activity significant
- caspase 3 and 7 activity (HCT116 p53^wt cells [1]; 1 or 5 μM, 48 or 72 hr): weak and non-significant increase
- BrdU incorporation (rate of DNA synthesis) (HCT116 p53^wt cells [2]): dose-dependent decrease in the rate of DNA synthesis
- BrdU^− cells that left G0/G1 phase and entered the S phase (HCT116 p53^wt cells [2]; [7]): 20%
- proportion of BrdU^+ cells in G0/G1 phase (HCT116 p53^wt cells [2]; [7]): 24%
- proportion of BrdU^+ cells remaining in the S phase (HCT116 p53^wt cells [2]; [7]): 56%
- cell-cycle progression (HCT116 p53^wt cells [2]; 5 μM, control siRNA-transfected HCT116 cells): blocked the cell-cycle progression
- G0/G1 arrest (HCT116 p53^wt cells [2]; 5 or 10 μM, 48 hr): mild, but significant G0/G1 arrest
- G0/G1 arrest (HCT116 p53^−/− cells [3]): mild, but significant G0/G1 arrest
- cyclin D1 level over time course (HCT116 p53^wt cells [4]; 5 μM, 24, 26, 28, 30, or 32 hr): significant decrease in cyclin D1
- cyclin D1 expression (HCT116 p53^wt cells [4]; 5 or 20 μM, 48 hr): significant, dose-dependent decrease
- cyclin D3 expression (HCT116 p53^wt cells [4]; 5 or 20 μM, 48 hr): no effect
- cyclin D1 expression (HCT116 p53^−/− cells [5]): significant, dose-dependent decrease
- cyclin D3 expression (HCT116 p53^−/− cells [5]): no effect
- clonogenic potential (surviving fraction and mean colony size) (MCF-7 cells): significant decrease of the clonogenic potential
- clonogenic potential (SAOS-2 cells): did not affect the clonogenic potential
- phosphorylation of Akt (S473) (HCT116 p53^wt cells [6]; 5 μM, 24–32 hr): increase of the phosphorylation
- phosphorylation of GSK-3β (S9) (HCT116 p53^wt cells [6]; 5 μM, 24–32 hr): increase of the phosphorylation
- expression of p27 (HCT116 p53^wt cells [6]; 5 or 20 μM, 48 hr, HCT116 cells (Figures 2A and S3A)): not altered
- expression of proteins encoded by p53-target genes (MDM2 and p21) and of p53 (HCT116 p53^wt cells [6]; 24 or 48 hr): did not induce
